# Earlier results as cited in US20210061712A1, “COMPOSITE STRUCTURAL MATERIAL COMPOSITIONS RESISTANT TO BIODEGRADATION” (The University of British Columbia, priority 2018, published 2021).
# Read-outs that look alike come from different tables or passages of the source.
# Legend:
# [1] = test system: Desulfovibrio desulfricans strain; conditions: pipe's internal wall coated with the oxide in epoxy
compound,measurement,setting,value
[Cu+2] [Cu],activity of SRB species,SRB species; 20 mg/L,reduced
[Zn+2] [Zn],activity of SRB species,SRB species; 20 mg/L,reduced
O=CCCCC=O [glutaraldehyde],activity of SRB species,SRB species; 10 mg/L,reduced
[Na+].[Na+].[O]=[W](=[O])([O-])[O-] [sodium tungstate],growth of A. thiooxidans cells,A. Thiooxidans cells,completely inhibits the growth
silver oxide,bacterial corrosion of concrete pipe,[1],reduce the bacterial corrosion
